Data on 72 compounds can be found in the OPERA property sets (Mansouri et al. 2018).

Molecules are shown by their SMILES.

Settings in one series: not given
In general, boiling point refers to the temperature of boiling at a given pressure. What is called melting point is the temperature, or range, at which the solid turns liquid. On to `CN(C)c1ccc(Cc2ccc(N(C)C)cc2)cc1`, for which the boiling point was 390 °C, the log10 Koc (L/kg) was determined as 3.96, the melting point was 91.5 °C and the ready biodegradability entry is “not readily biodegradable”.

`c1ccc2c(c1)ccc1[nH]c3ccc4ccccc4c3c12` yielded a log10 Koc (L/kg) of 6.03 and a melting point of 158 °C.

In the case of `CCCCCCCCCCCCCCCCCCO`, the log10 Koa was 10.9, the log10 vapour pressure (mmHg) was -5.57, the melting point was 59.5 °C and the ready biodegradability result is “readily biodegradable”.

`Cc1cccc(NC(=O)c2ccccc2)c1` displayed a melting point of 125 °C.

`COc1ccc(COC(=O)Cc2ccccc2)cc1`: the boiling point worked out at 370 °C.

In turn, `CC(C)(C)C1CCC(O)CC1` (stereo unspecified) had a log10 vapour pressure (mmHg) of -1.15 and a melting point of 66 °C.

On to `COc1cc(OC)c(C(=O)O)cc1OC`, for which the boiling point came to 300 °C and the melting point turned out to be 145 °C.

Take `CNC(=O)Oc1cc(C)c(N(C)C)c(C)c1`: the log10 Koc (L/kg) is 2.48 and the melting point is 85 °C.

As to `COP(=S)(OC)Oc1cc(Cl)c(Br)cc1Cl`, the log10 vapour pressure (mmHg) is -3.89 and the melting point amounted to 53.5 °C.

In turn, `N#CSCc1ccccc1` gave a boiling point of 232 °C and a melting point of 43 °C.

The compound `O=C(O)c1c2ccccc2cc2ccccc12` returned a log10 Koc (L/kg) of 2.74.

As for `CN(C)c1ccc(C(O)c2ccc(N(C)C)cc2)cc1`, the melting point was 101 °C.

As for `O=Cc1ccccc1F`, the boiling point is 175 °C and the melting point is -44.5 °C.

`Fc1c(F)c(F)c(F)c(F)c1F` had a boiling point of 80.2 °C and a log10 vapour pressure (mmHg) of 1.93.

Compound `CCCCCCC(Br)CBr` (stereo unspecified) displayed a boiling point of 241 °C.

For the compound `CCCCc1c(C)nc(N(C)C)nc1O`, the log10 Koc (L/kg) came out at 1.95, the log10 vapour pressure (mmHg) was -4.96 and the melting point was found to be 102 °C.

Take `Cc1cc(Sc2cc(C)c(O)c(C(C)(C)C)c2)cc(C(C)(C)C)c1O`: the melting point came to 126 °C.

On to `Oc1ccc2c(c1)[C@@]13CCCC[C@@]1(O)[C@@H](C2)N(CC1CCC1)CC3`, for which the melting point was 216 °C.

With `O=Cc1ccccc1C(=O)O`, the melting point is 98 °C.

For the compound `COC(=O)c1ccccc1`, the boiling point was found to be 199 °C, the log10 Koc (L/kg) is 2.1, the log10 vapour pressure (mmHg) was -0.42 and the melting point is -15 °C.

Compound `CCCN(CCC)CCC` returned a boiling point of 156 °C, a log10 vapour pressure (mmHg) of 0.179 and a melting point of -93.5 °C.

Regarding `O=C(O)/C=C/c1c[nH]cn1`, the melting point came to 225 °C.

`CC(C)NCC(O)COc1ccc(O)cc1` (stereo unspecified) displayed a melting point of 128 °C.

`C=CCNC(=O)NCC=C` yielded a melting point of 91.5 °C.

Compound `OCCCCCCO` came in with a boiling point of 250 °C, a log10 vapour pressure (mmHg) of -3.3 and a melting point of 45 °C.

`CC1CCC(C)CC1` (stereo unspecified) gave a boiling point of 120 °C, a log10 vapour pressure (mmHg) of 1.25 and a melting point of -87 °C.

For the compound `CCN(CC)c1nc(Cl)nc(NC(C)C)n1`, the log10 Koc (L/kg) was 2.91.

Compound `CNCc1ccco1` gave a boiling point of 149 °C.

`CCC(c1ccc2cc(OC)ccc2c1)C(C)(C)C(=O)O` (stereo unspecified) returned a melting point of 140 °C.

`CC(C)CCCC(=O)O` registered a boiling point of 216 °C.

With `ClC(Cl)C(Cl)(Cl)C(Cl)(Cl)Cl`, the boiling point is 248 °C and the melting point is 29.4 °C.

`CC1=CC[C@@H](C(C)C)CC1` returned a boiling point of 174 °C.

As to `c1ccc2c(c1)ccc1nc3c(ccc4ccccc43)cc12`, the melting point was found to be 226 °C.

Take `Cc1ccc(C)c(Cl)c1`: the boiling point is 187 °C, the melting point is 1.6 °C and the ready biodegradability result is “not readily biodegradable”.

Consider `COCCOCCOCCOC`, for which the boiling point amounted to 216 °C, the log10 vapour pressure (mmHg) is -1.39 and the melting point is -45 °C.

In the case of `Cc1ccc(C)n1C`, the boiling point amounted to 171 °C.

With `Cc1cccc(N2CC(CO)OC2=O)c1` (stereo unspecified), the melting point came to 76 °C.

`C=C(C)C(=O)Nc1ccc(Cl)c(Cl)c1` came in with a melting point of 128 °C.

In turn, `CCCC(C)C(=O)O` (stereo unspecified) registered a boiling point of 196 °C.

In the case of `C=CC(C)(CCC=C(C)C)OC(=O)C(C)C` (stereo unspecified), the boiling point is 229 °C.

Compound `O=C(c1ccc(F)cc1)c1ccc(F)cc1` showed a melting point of 104 °C.

`Clc1cc(Cl)c2c(Cl)c(Cl)cc(Cl)c2c1Cl`: the log10 Koa amounted to 9.69 and the log10 vapour pressure (mmHg) is -6.46.

Turning to `O=C(O)[C@H]1CC=CCC1`, the boiling point is 234 °C and the melting point came to 17 °C.

As to `Oc1ccc(N=Nc2ccccc2)c(O)c1`, the melting point was 170 °C.

In turn, `CCCCCCCC(=O)CC` gave a boiling point of 203 °C and a melting point of 2.5 °C.

Compound `C1CCC(CCCC2CCCCC2)CC1` registered a boiling point of 292 °C and a melting point of -17 °C.

On to `C[C@H]1O[C@@H](O[C@H]2[C@@H](O)C[C@H](O[C@H]3[C@@H](O)C[C@H](O[C@H]4CC[C@@]5(C)[C@H](CC[C@@H]6[C@@H]5CC[C@]5(C)[C@@H](C7=CC(=O)OC7)CC[C@]65O)C4)O[C@@H]3C)O[C@@H]2C)C[C@H](O)[C@@H]1O`, for which the melting point was 256 °C.

In turn, `O=Cc1ccc(Br)o1` yielded a boiling point of 201 °C.

In turn, `CCCCC1CCC(=O)O1` (stereo unspecified) had a boiling point of 234 °C.

`O=C(c1ccccc1)c1ccccc1C(F)(F)F` showed a melting point of 61 °C.

Consider `O=C(O)C(Cl)Cl`, for which the boiling point turned out to be 194 °C, the log10 Henry constant (atm·m³/mol) was -8.08, the log10 vapour pressure (mmHg) was -0.748 and the melting point is 13.5 °C. The ready biodegradability result is reported as “readily biodegradable”.

As to `O=S(=O)(Cl)c1c(F)c(F)c(F)c(F)c1F`, the boiling point turned out to be 210 °C.

As to `O=C(CBr)OCC=CCOC(=O)CBr`, the ready biodegradability entry is recorded as “readily biodegradable”.

On to `CC(O)C(C)O` (stereo unspecified), for which the ready biodegradability result is on record as “readily biodegradable”.

Regarding `C#CCBr`, the boiling point was 89 °C and the log10 Henry constant (atm·m³/mol) was -2.95.

Turning to `Cc1c(Cl)c(Cl)cc(Cl)c1Cl`, the melting point was found to be 93.5 °C.

With `CCCN(CC1CC1)c1c([N+](=O)[O-])cc(C(F)(F)F)cc1[N+](=O)[O-]`, the log10 Koc (L/kg) stood at 4.01, the log10 vapour pressure (mmHg) was -4.2 and the melting point came to 32.3 °C.

Consider `NCCc1ccc(O)cc1`, for which the melting point is 164 °C.

For `FC(F)OC(Cl)C(F)(F)F` (stereo unspecified), the boiling point came out at 48.5 °C, the log10 Henry constant (atm·m³/mol) was -1.54 and the melting point turned out to be 48.5 °C.

The compound `CCC(O)(CC)CC` yielded a boiling point of 142 °C and a melting point of -12.5 °C.

`COc1cc(CO)ccc1O` yielded a melting point of 115 °C.

The compound `Cc1ccc(C(F)(F)F)cc1` showed a boiling point of 129 °C.

Compound `O=C(Cl)c1ccccc1O` came in with a melting point of 19 °C.

Take `O=C(O)CS(=O)(=O)CC(=O)O`: the melting point worked out at 182 °C.

In turn, `CC[N+]1(C)CCCC(OC(=O)C(O)(c2ccccc2)c2ccccc2)C1.[Br-]` (stereo unspecified) showed a melting point of 180 °C.

The compound `C[C@H](CCC(=O)O)[C@H]1CC[C@H]2[C@@H]3CCC4CCCC[C@]4(C)[C@H]3CC[C@]12C` (stereo partly specified) displayed a melting point of 164 °C.

In the case of `C=CCl`, the boiling point was -13.3 °C, the log10 Henry constant (atm·m³/mol) was -1.56, the log10 vapour pressure (mmHg) came to 3.47 and the melting point is -154 °C.

Compound `COC(=O)c1cc(Cl)cc(N)c1Cl` yielded a log10 Koc (L/kg) of 2.74.

The compound `CCc1ccc[nH]1` displayed a boiling point of 164 °C.

`C/C=C/C=C/C` gave a boiling point of 80 °C and a melting point of -79 °C.

For the compound `CCCCC1CCC(O)C(OC)C1` (stereo unspecified), the ready biodegradability entry was “readily biodegradable”.

In the case of `FC(F)=C(F)OC(F)(F)C(F)(F)C(F)(F)F`, the ready biodegradability result is listed as “not readily biodegradable”.

Still in this series, the particulars now being: fish.
As to `CN(C)c1ccc(Cc2ccc(N(C)C)cc2)cc1`, the log10 biotransformation half-life (days) was -0.04.

`CNC(=O)Oc1cc(C)c(N(C)C)c(C)c1` had a log10 BCF of 1.42.

In turn, `COP(=S)(OC)Oc1cc(Cl)c(Br)cc1Cl` registered a log10 BCF of 3.59 and a log10 biotransformation half-life (days) of 0.97.

On to `c1ccc2c(c1)ccc1nc3c(ccc4ccccc43)cc12`, for which the log10 BCF worked out at 2.03 and the log10 biotransformation half-life (days) was -0.14.
